PMC9995496, “A screen for MeCP2-TBL1 interaction inhibitors using a luminescence-based assay” (Scientific Reports, 2023)
Structures can show the parent of a compound that is named as a salt. Where two headings read alike, the source gives them in different places. Bridge positions count the residues as written; N and C are the ends. Square brackets hold non-standard residues; d marks the D form. Peptide text beside a SMILES is read from it. hArg = N=C(N)NCCCC[C@H](N)C(=O)O; Mpa = O=C(O)CCS

Tested on: PRKACA-PRKAR2A interaction (SmBiT-PRKACA / LgBiT-PRKAR2A), protein kinase A
Parameters: NanoLuc complementation counter-screen in cell extract, PRKACA with PRKAR2A, loss of luminescence, detects NanoLuc interference
Details: counter-screen for NanoLuc interference, 0.5 h, 20 µM, inhibitor

Row | SMILES | Inh (PKA) | Inh (PKA) (Inh (PKA))
1 | CN[C@@H]1[C@H](O[C@H]2[C@H](O[C@H]3[C@H](O)[C@@H](O)[C@H](N=C(N)N)[C@@H](O)[C@@H]3N=C(N)N)O[C@@H](C)[C@]2(O)C=O)O[C@@H](CO)[C@H](O)[C@H]1O [UM0142407:01, Streptomycin sulfate] | 1.585% | –
2 | CC1(C)[C@H](C(=O)O)N2C(=O)C[C@H]2S1(=O)=O [UM0142408:01, Sulbactam sodium] | 1.508% | –
3 | CCN=C1N[C@@H]2[C@@H](O)[C@H](O)[C@@H](CO)O[C@@H]2S1 [UM0142409:01, Thiamet G] | -0.5508% | –
4 | CN(C)C(=O)COC(=O)Cc1ccc(OC(=O)c2ccc(NC(=N)N)cc2)cc1 [UM0142412:01, Camostat Mesilate] | 0.7864% | –
5 | C=C[C@H]1CN2CC[C@H]1C[C@H]2[C@H](O)c1ccnc2ccc(OC)cc12 [UM0142415:01, Quinine HCl Dihydrate] | 1.874% | –
6 | C=C1CC[C@H](O)C/C1=C/C=C1\CCC[C@]2(C)[C@@H]([C@H](C)CCCC(C)(C)O)CC[C@@H]12 [UM0142419:01, Calcifediol] | 12.98% | –
7 | CCC(CC)[C@H](NC(C)=O)[C@@H]1[C@H](O)[C@@H](C(=O)O)C[C@H]1NC(=N)N [UM0142420:01, Peramivir Trihydrate] | – | 0.7131%
8 | Cc1cccc(Nc2nc(-c3ccncc3)cs2)c1 [UM0142421:01, STF-62247] | 25.96% | –
9 | C=C1/C(=C\C=C2/CCC[C@]3(C)[C@@H]([C@H](C)CCCC(C)C)CC[C@@H]23)C[C@@H](O)C[C@@H]1O [UM0142422:01, Alfacalcidol] | 10.76% | –
10 | Cc1cc(OCc2nnc(SC3CCCC3)n2-c2cccnc2)ccc1-c1ccc(S(C)(=O)=O)cc1 [UM0142426:01, NMS-873] | 10.54% | –
11 | Nc1ncnc2c1c(-c1cnc3[nH]ccc3c1)nn2C1CCCC1 [UM0142428:01, PP121] | 28.88% | –
12 | COCCOc1ccc2c(c1)ncn2-c1ccc2cccc(N3CCC(N)CC3)c2n1 [UM0142429:01, CP-673451] | 21.57% | –
13 | CNc1nc(-c2ccc3c(N)n[nH]c3c2)cc(N2C[C@@H](C(=O)NC3CCCCC3)CC[C@H]2C)n1 [UM0142430:01, GSK2334470] | 2.681% | –
14 | Cc1cccc(CC(=O)N2CCc3c2ccc(-c2cn(C)c4ncnc(N)c24)c3F)n1 [UM0142431:01, GSK2656157] | -0.3115% | –
15 | O=C1NC(=O)/C(=C/c2ccc3nccc(-c4ccncc4)c3c2)S1 [UM0142432:01, GSK1059615] | 27.08% | –
16 | Cc1c(CN2CCN(C(=O)[C@H](C)O)CC2)sc2c(N3CCOCC3)nc(-c3cnc(N)nc3)nc12 [UM0142435:01, GDC-0980 (RG7422)] | 0.4199% | –
17 | Cc1c(Cn2c(C)nc3c(C(=O)O)cc(N4CCOCC4)cc32)cccc1C(F)(F)F [UM0142436:01, GSK2636771] | -0.2162% | –
18 | Cn1cc(C2=C(c3cn(CCCSC(=N)N)c4ccccc34)C(=O)NC2=O)c2ccccc21 [UM0142439:01, Ro 31-8220 Mesylate] | 76.02% | –
19 | COc1ccc2[nH]c([S@@+]([O-])Cc3ncc(C)c(OC)c3C)nc2c1 [UM0142444:01, Esomeprazole Magnesium] | – | 3.498%
20 | CCOC(=O)[C@H](CCc1ccccc1)N[C@H]1CS[C@H](c2cccs2)CN(CC(=O)O)C1=O [UM0142447:01, Temocapril HCl] | 1.04% | –
21 | COCCCOc1cc(C[C@@H](C[C@H](N)[C@@H](O)C[C@H](C(=O)NCC(C)(C)C(N)=O)C(C)C)C(C)C)ccc1OC [UM0142448:01, Aliskiren Hemifumarate] | 6.646% | –

Row | SMILES | Inh (PKA) | Inh (PKA) (Inh (PKA))
22 | CCn1c2ccccc2c2cc(Nc3ccnc(NCCCN4CCOCC4)n3)ccc21 [UM0142449:01, EHop-016] | 37.03% | –
23 | Cc1cn([C@H]2C[C@H](N=[N+]=[N-])[C@@H](CO)O2)c(=O)[nH]c1=O [UM0142451:01, Zidovudine] | 1.207% | –
24 | CC(C)(C)C(=O)OCOP(=O)(COCCn1cnc2c(N)ncnc21)OCOC(=O)C(C)(C)C [UM0142452:01, Adefovir Dipivoxil] | -0.7793% | –
25 | Cc1cc(C#N)cc(C)c1Oc1nc(Nc2ccc(C#N)cc2)nc(N)c1Br [UM0142453:01, Etravirine (TMC125)] | 89.04% | –
26 | Cc1cn([C@H]2C=C[C@@H](CO)O2)c(=O)[nH]c1=O [UM0142454:01, Stavudine (d4T)] | 0.5167% | –
27 | CC(C)CCN1c2nc(Nc3cc(F)c(O)c(F)c3)ncc2N(C)C(=O)C1C (stereo not drawn) [UM0142455:01, BI-D1870] | 64.82% | –
28 | CCc1cncnc1N1CCN(Cc2nc3ccc(C(F)(F)F)cc3[nH]2)CC1 [UM0142456:01, PF-4708671] | 34.33% | –
29 | CNS(=O)(=O)CCc1ccc2[nH]cc(C3CCN(C)CC3)c2c1 [UM0142462:01, Naratriptan] | -0.5355% | –
30 | Nc1c(Br)cc(Br)cc1CN[C@H]1CC[C@H](O)CC1 [UM0142466:01, Ambroxol HCl] | 4.132% | –
31 | O=C1NC(=O)C(c2ccccc2)(c2ccccc2)N1 [UM0142467:01, Phenytoin] | 11.36% | –
32 | CCOC(=O)C1=C[C@]2(CC)CCCN3CCc4c(n1c1ccccc41)[C@@H]32 [UM0142468:01, Vinpocetine] | 12.65% | –
33 | COc1cc(NC(=O)c2ccc(-c3ccc(Cl)cc3)o2)cc(OC)c1 [UM0142469:01, A-803467] | 40.39% | –
34 | CCCCCCCN(CC)CCCC(O)c1ccc(NS(C)(=O)=O)cc1 (stereo not drawn) [UM0142470:01, Ibutilide Fumarate] | 0.4733% | –
35 | O=C(Cc1ccc(-c2ccc(OCCN3CCOCC3)cc2)cn1)NCc1ccccc1 [UM0142472:01, KX2-391] | – | 3.767%
36 | COc1cc(Nc2ncc(F)c(Nc3ccc4c(n3)N(COP(=O)(O)O)C(=O)C(C)(C)O4)n2)cc(OC)c1OC [UM0142473:01, Fostamatinib (R788)] | – | 53.12%
37 | COc1cc(-c2cc(-c3cccc(O)c3)cnc2N)cc(OC)c1OC [UM0142474:01, K02288] | 26.47% | –
38 | Cc1cccc(-c2[nH]c(C(C)(C)C)nc2-c2ccc3c(c2)OCO3)n1 [UM0142475:01, SB505124] | – | 12.17%
39 | COc1cccc2c1C(=O)c1c(O)c3c(c(O)c1C2=O)C[C@@](O)(C(=O)CO)C[C@@H]3O[C@H]1C[C@H](N)[C@H](O[C@@H]2CCCCO2)[C@H](C)O1 [UM0142479:01, Pirarubicin] | 33.32% | –
40 | CC[C@@]1(O)C(=O)OCc2c1cc1n(c2=O)Cc2cc3c(CN(C)C)c(O)ccc3nc2-1 [UM0142480:01, Topotecan HCl] | 19.17% | –
41 | CCn1c(N)c(C(=O)NC)c(=O)c2ccc(C#C[C@@](C)(O)COC)nc21 [UM0142483:01, SAR131675] | 0.3639% | –
42 | O=C(CSc1nc2c(c(=O)n1-c1ccccc1)SCC2)Nc1ccc(-c2ccccc2)cn1 [UM0142486:01, IWP-L6] | 23.47% | –

Row | SMILES | Inh (PKA) | Inh (PKA) (Inh (PKA))
43 | Cc1cc(-c2ncc(CC(=O)Nc3ccc(-c4cnccn4)cn3)cc2C)ccn1 [UM0142488:01, LGK-974] | 0.7443% | –
44 | O=C(O)c1cc2cccc([N+](=O)[O-])c2[nH]1 [UM0142492:01, CRT0044876] | 5.384% | –
45 | NC(=S)N/N=C/c1ncccc1N [UM0142496:01, Triapine] | 0.417% | –
46 | CCCN1CCN(c2ccc(C(=O)NC3(C(=O)NCC#N)CCCCC3)cc2)CC1 [UM0142500:01, Balicatib] | -0.9688% | –
47 | CCOC(=O)[C@H](C)C[C@@H](Cc1ccc(-c2ccccc2)cc1)NC(=O)CCC(=O)O [UM0142501:01, AHU-377 hemicalcium salt] | – | 0.8137%
48 | CCC(Sc1nnc2c(n1)[nH]c1ccccc12)C(=O)N1c2ccccc2Sc2ccccc21 (stereo not drawn) [UM0142503:01, Inauhzin] | 40.51% | –
49 | CCCCCCCc1ccc(CCc2cccc(O)c2C(=O)O)cc1 [UM0142505:01, MG 149] | 11.49% | –
50 | CC(C)NCC(O)c1ccc(NS(C)(=O)=O)cc1 (stereo not drawn) [UM0142510:01, Sotalol hydrochloride] | -0.9356% | –
51 | O=C(c1ccccc1)c1ccc2n1CCC2C(=O)O (stereo not drawn) [UM0142511:01, Ketorolac] | – | 0.7443%
52 | COCCCOc1ccnc(C[S+]([O-])c2nc3ccccc3[nH]2)c1C (stereo not drawn) [UM0142515:01, Rabeprazole] | 0.62% | –
53 | C#C[C@]1(O)CC[C@H]2[C@@H]3CCC4=CC(=O)CC[C@@H]4[C@H]3C(=C)C[C@@]21CC [UM0142516:01, Etonogestrel] | 8.15% | –
54 | CC(C)C(=O)OCC(=O)[C@@]12O[C@H](C3CCCCC3)O[C@@H]1C[C@H]1[C@@H]3CCC4=CC(=O)C=C[C@]4(C)[C@H]3[C@@H](O)C[C@@]12C [UM0142517:01, Ciclesonide] | 3.161% | –
55 | CC(=O)O[C@H]1Cc2ccccc2N(C(N)=O)c2ccccc21 [UM0142518:01, Eslicarbazepine acetate] | -0.7534% | –
56 | N=C(N)NCCCC[C@@H]1NC(=O)CCSSC[C@@H](C(N)=O)NC(=O)[C@@H]2CCCN2C(=O)[C@H](Cc2c[nH]c3ccccc23)NC(=O)[C@H](CC(=O)O)NC(=O)CNC1=O [UM0142520:01, Eptifibatide] ([Mpa][hArg]GDWPC-NH2; disulfide 1-7) | -0.06094% | –
57 | COc1cccc(CCc2ccccc2OCC(CN(C)C)OC(=O)CCC(=O)O)c1 (stereo not drawn) [UM0142521:01, Sarpogrelate hydrochloride] | 4.065% | –
58 | O=C(O)Cc1ccccc1Nc1c(Cl)cccc1Cl [UM0142522:01, Diclofenac] | – | 9.074%
59 | O=C1CCCC(=O)C1C(=O)c1ccc(C(F)(F)F)cc1[N+](=O)[O-] [UM0142524:01, Nitisinone] | 2.396% | –
60 | CC(=O)Nc1ccc(O)cc1 [UM0142525:01, Acetaminophen] | -0.5181% | –
61 | O=C(O)c1ccc(N2C(=O)/C(=C\c3ccc(-c4ccc([N+](=O)[O-])cc4)o3)C=C2c2ccccc2)cc1 [UM0142546:01, 4E1RCat] | 43.25% | –
62 | O=C(COc1ccc(Cl)cc1)N[C@H]1CC[C@H](NC(=O)COc2ccc(Cl)cc2)CC1 [UM0142547:01, ISRIB (trans-isomer)] | 0.7821% | –
63 | CCCCN(Cc1ccc(C(=O)NO)cc1)C(=O)Nc1ccccc1 [UM0142549:01, Nexturastat A] | 2.476% | –
